Reference: publication PMC5218480 (PLoS ONE, 2017)

System: MV-4-11 cells
Experiment: Gene expression microarray analysis (Affymetrix PrimeView) and GSEA
Assay type: cell-based, human
Parameters: RFU PODN (11730768_x_at) / Fold change /veh PODN (11730768_x_at) / RFU LINC00158 (11744669_a_at) / Fold change /veh LINC00158 (11744669_a_at) / RFU DUSP10 (11751237_a_at) / Fold change /veh DUSP10 (11751237_a_at) / RFU ID3 (11757404_x_at) / Fold change /veh ID3 (11757404_x_at) / RFU PLEKHG5 (11737974_s_at) / Fold change /veh PLEKHG5 (11737974_s_at) / RFU LRRC4B (11730491_at) / Fold change /veh LRRC4B (11730491_at) / RFU GIMAP4 (11747438_a_at) / Fold change /veh GIMAP4 (11747438_a_at) / RFU KRT8 (11758183_x_at) / Fold change /veh KRT8 (11758183_x_at) / RFU CNN1 (11734310_a_at) / Fold change /veh CNN1 (11734310_a_at) / RFU VPS37D (11726825_at) / Fold change /veh VPS37D (11726825_at) / RFU C10orf10 (11716522_x_at) / Fold change /veh C10orf10 (11716522_x_at) / RFU KIR2DL2 /// KIR2DL4 /// KIR2DL5A /// KIR2DL5B /// KIR2DS1 /// KIR2DS2 /// KIR2DS3 /// KIR2DS4 /// KIR3DL3 /// KIR3DL3 /// KIR3DS1 (11738374_at) / Fold change /veh KIR2DL2 /// KIR2DL4 /// KIR2DL5A /// KIR2DL5B /// KIR2DS1 /// KIR2DS2 /// KIR2DS3 /// KIR2DS4 /// KIR3DL3 /// KIR3DL3 /// KIR3DS1 (11738374_at) / RFU C1QL1 (11718748_at) / Fold change /veh C1QL1 (11718748_at) / RFU TMPRSS4 (11747572_a_at) / Fold change /veh TMPRSS4 (11747572_a_at) / RFU HAMP (11756126_x_at) / Fold change /veh HAMP (11756126_x_at) / RFU RNFT2 (11725882_a_at) / Fold change /veh RNFT2 (11725882_a_at) / RFU NR4A2 (11747474_a_at) / Fold change /veh NR4A2 (11747474_a_at) / RFU ABCC12 (11746883_a_at) / Fold change /veh ABCC12 (11746883_a_at) / RFU TMEM136 (11760407_x_at) / Fold change /veh TMEM136 (11760407_x_at) / RFU CLDN22 /// WWC2 (11732394_at) / Fold change /veh CLDN22 /// WWC2 (11732394_at) / RFU HLA-DPB1 (11760878_x_at) / Fold change /veh HLA-DPB1 (11760878_x_at) / RFU SPINT1 (11716480_a_at) / Fold change /veh SPINT1 (11716480_a_at) / RFU GAP43 (11754022_s_at) / Fold change /veh GAP43 (11754022_s_at) / RFU A4GNT (11735810_at) / Fold change /veh A4GNT (11735810_at) / RFU PRB3 (11715151_x_at) / Fold change /veh PRB3 (11715151_x_at) / RFU TUBB4B (11761932_at) / Fold change /veh TUBB4B (11761932_at) / RFU CAPN14 (11732068_a_at) / Fold change /veh CAPN14 (11732068_a_at) / RFU TMCC2 (11721928_a_at) / Fold change /veh TMCC2 (11721928_a_at) / RFU IRGQ (11745062_a_at) / Fold change /veh IRGQ (11745062_a_at) / RFU FAM174B (11720279_a_at) / Fold change /veh FAM174B (11720279_a_at) / RFU TMPRSS4 (11748680_a_at) / Fold change /veh TMPRSS4 (11748680_a_at) / RFU FAM212B (11763350_a_at) / Fold change /veh FAM212B (11763350_a_at) / RFU PLEKHG5 (11743358_a_at) / Fold change /veh PLEKHG5 (11743358_a_at) / RFU ZSCAN30 (11745921_a_at) / Fold change /veh ZSCAN30 (11745921_a_at) / RFU CMKLR1 (11741424_a_at) / Fold change /veh CMKLR1 (11741424_a_at) / RFU LOC101060620 /// MAPK8IP1 (11723275_at) / Fold change /veh LOC101060620 /// MAPK8IP1 (11723275_at) / RFU SPTSSB (11747773_x_at) / Fold change /veh SPTSSB (11747773_x_at) / RFU PRSS12 (11739890_at) / Fold change /veh PRSS12 (11739890_at) / RFU BIN1 (11741810_x_at) / Fold change /veh BIN1 (11741810_x_at) / RFU WNT11 (11732464_a_at) / Fold change /veh WNT11 (11732464_a_at) / RFU C10orf10 (11716521_a_at) / Fold change /veh C10orf10 (11716521_a_at) / RFU C5orf56 (11738089_at) / Fold change /veh C5orf56 (11738089_at) / RFU CYB561 (11721691_x_at) / Fold change /veh CYB561 (11721691_x_at) / RFU ANKRD19P (11752326_a_at) / Fold change /veh ANKRD19P (11752326_a_at) / RFU OR2T12 /// OR2T33 /// OR2T8 (11738714_s_at) / Fold change /veh OR2T12 /// OR2T33 /// OR2T8 (11738714_s_at) / RFU VCAN (11748164_a_at) / Fold change /veh VCAN (11748164_a_at) / RFU JSRP1 (11732532_at) / Fold change /veh JSRP1 (11732532_at) / RFU KRTAP10-11 (11738290_x_at) / Fold change /veh KRTAP10-11 (11738290_x_at) / RFU MYO3A (11730013_a_at) / Fold change /veh MYO3A (11730013_a_at) / RFU EBF3 (11725865_a_at) / Fold change /veh EBF3 (11725865_a_at) / RFU CAMK2N1 (11719241_x_at) / Fold change /veh CAMK2N1 (11719241_x_at) / RFU C5orf56 (11738088_a_at) / Fold change /veh C5orf56 (11738088_a_at) / RFU OLFML3 (11715873_a_at) / Fold change /veh OLFML3 (11715873_a_at) / RFU LOC100653217 /// NTM (11731650_a_at) / Fold change /veh LOC100653217 /// NTM (11731650_a_at) / RFU MAPK11 (11762145_a_at) / Fold change /veh MAPK11 (11762145_a_at) / RFU FIZ1 (11724087_x_at) / Fold change /veh FIZ1 (11724087_x_at) / RFU OASL (11726364_x_at) / Fold change /veh OASL (11726364_x_at) / RFU SOX15 (11748057_x_at) / Fold change /veh SOX15 (11748057_x_at) / RFU CD79A (11719716_a_at) / Fold change /veh CD79A (11719716_a_at) / RFU HIST1H1D (11736915_at) / Fold change /veh HIST1H1D (11736915_at) / RFU CASKIN2 (11723855_a_at) / Fold change /veh CASKIN2 (11723855_a_at) / RFU LOC730098 (11760151_x_at) / Fold change /veh LOC730098 (11760151_x_at) / RFU OR4N2 (11742367_at) / Fold change /veh OR4N2 (11742367_at) / RFU PRRT2 (11749266_a_at) / Fold change /veh PRRT2 (11749266_a_at) / RFU SNX32 (11753110_a_at) / Fold change /veh SNX32 (11753110_a_at) / RFU CDHR5 (11726645_a_at) / Fold change /veh CDHR5 (11726645_a_at) / RFU RCAN1 (11760418_a_at) / Fold change /veh RCAN1 (11760418_a_at) / RFU FAM167A (11723789_a_at) / Fold change /veh FAM167A (11723789_a_at) / RFU FAM26E (11764081_at) / Fold change /veh FAM26E (11764081_at) / RFU ISYNA1 (11749810_s_at) / Fold change /veh ISYNA1 (11749810_s_at) / RFU ACY1 (11761880_at) / Fold change /veh ACY1 (11761880_at) / RFU 11764098_at / Fold change /veh 11764098_at / RFU SAMD14 (11745864_x_at) / Fold change /veh SAMD14 (11745864_x_at) / RFU NPB (11741838_a_at) / Fold change /veh NPB (11741838_a_at) / RFU TMPRSS6 (11731388_a_at) / Fold change /veh TMPRSS6 (11731388_a_at) / RFU KRTAP10-2 (11738614_at) / Fold change /veh KRTAP10-2 (11738614_at) / RFU ARHGAP8 /// PRR5-ARHGAP8 (11727945_x_at) / Fold change /veh ARHGAP8 /// PRR5-ARHGAP8 (11727945_x_at) / RFU KRTAP5-7 /// NADSYN1 (11734609_at) / Fold change /veh KRTAP5-7 /// NADSYN1 (11734609_at) / RFU RASL12 (11751679_a_at) / Fold change /veh RASL12 (11751679_a_at) / RFU CDKN2B (11736163_a_at) / Fold change /veh CDKN2B (11736163_a_at) / RFU PRF1 (11729649_at) / Fold change /veh PRF1 (11729649_at) / RFU, ZNF638 /// ZNF638-IT1 / Fold change vs veh, ZNF638 /// ZNF638-IT1 / RFU, PANK3 / Fold change vs veh, PANK3 / RFU, SH3YL1 / Fold change vs veh, SH3YL1 / RFU, ZEB2 / Fold change vs veh, ZEB2 / RFU, NRIP1 / Fold change vs veh, NRIP1 / RFU, PTTG1IP / Fold change vs veh, PTTG1IP / RFU, CAPN2 / Fold change vs veh, CAPN2 / RFU, MED14 / Fold change vs veh, MED14 / RFU, SNORA58 / Fold change vs veh, SNORA58 / RFU, C1orf63 / Fold change vs veh, C1orf63 / RFU, LRRFIP1 / Fold change vs veh, LRRFIP1 / RFU, NDUFAF7 / Fold change vs veh, NDUFAF7 / RFU, SLC12A2 / Fold change vs veh, SLC12A2 / RFU, IBTK / Fold change vs veh, IBTK / RFU, ESF1 / Fold change vs veh, ESF1 / Fold change vs veh, TMEM50B / RFU, TAOK1 / Fold change vs veh, TAOK1 / RFU, ACBD3 / Fold change vs veh, ACBD3 / RFU, TMA16 / Fold change vs veh, TMA16 / RFU, RWDD3 / Fold change vs veh, RWDD3 / RFU, BCAT1 / Fold change vs veh, BCAT1 / RFU, EDEM3 / Fold change vs veh, EDEM3 / RFU, TMEM33 / Fold change vs veh, TMEM33 / RFU, WDR75 / Fold change vs veh, WDR75 / RFU, AHCTF1 / Fold change vs veh, AHCTF1 / RFU, TFRC / Fold change vs veh, TFRC / RFU, ZDHHC17 / Fold change vs veh, ZDHHC17 / RFU, NOM1 / Fold change vs veh, NOM1 / RFU, ARL8B / Fold change vs veh, ARL8B / RFU, ZBTB11 / Fold change vs veh, ZBTB11 / RFU, TAMM41 / Fold change vs veh, TAMM41 / RFU, KIAA1704 /// LOC100996395 / Fold change vs veh, KIAA1704 /// LOC100996395 / RFU, ING1 / Fold change vs veh, ING1 / RFU, TRMT61B / Fold change vs veh, TRMT61B / RFU, FUBP3 / Fold change vs veh, FUBP3 / RFU, TP53 / Fold change vs veh, TP53 / RFU, TNKS2 / Fold change vs veh, TNKS2 / RFU, ZFP14 / Fold change vs veh, ZFP14 / RFU, ACTR2 / Fold change vs veh, ACTR2 / RFU, PPP3R1 / Fold change vs veh, PPP3R1 / RFU, PIK3R1 / Fold change vs veh, PIK3R1 / RFU, HNRNPA1 / Fold change vs veh, HNRNPA1 / RFU, RNF170 / Fold change vs veh, RNF170 / RFU, ZNF28 / Fold change vs veh, ZNF28 / RFU, RNGTT / Fold change vs veh, RNGTT / RFU, OGT / Fold change vs veh, OGT / RFU, BRD1 / Fold change vs veh, BRD1 / RFU, MARS / Fold change vs veh, MARS / RFU, ZNF655 / Fold change vs veh, ZNF655 / RFU, FAHD1 / Fold change vs veh, FAHD1 / RFU, BDP1 / Fold change vs veh, BDP1 / RFU, LRRCC1 / Fold change vs veh, LRRCC1 / RFU, ARID1A / Fold change vs veh, ARID1A / RFU, ZNF146 / Fold change vs veh, ZNF146 / RFU, ZNF330 / Fold change vs veh, ZNF330 / RFU, GPN3 / Fold change vs veh, GPN3 / RFU, C9orf123 / Fold change vs veh, C9orf123 / RFU, N4BP2L2 / Fold change vs veh, N4BP2L2 / RFU, ARFIP1 / Fold change vs veh, ARFIP1 / RFU, FAM179B / Fold change vs veh, FAM179B / RFU, BCL10 / Fold change vs veh, BCL10 / RFU, UHRF1BP1L / Fold change vs veh, UHRF1BP1L / RFU, BET1 / Fold change vs veh, BET1 / RFU, CNOT2 / Fold change vs veh, CNOT2 / RFU, ZNF268 / Fold change vs veh, ZNF268 / Fold change vs veh, ZNF507 / RFU, DGCR2 / Fold change vs veh, DGCR2 / RFU, WDSUB1 / Fold change vs veh, WDSUB1 / Fold change vs veh, HSP90B1 /// MIR3652 / RFU, ADSS / Fold change vs veh, ADSS / RFU, GK / Fold change vs veh, GK / RFU, ZNF148 / Fold change vs veh, ZNF148 / RFU, TAF9 / Fold change vs veh, TAF9 / RFU, SLC1A5 / Fold change vs veh, SLC1A5 / RFU, SLMO2 / Fold change vs veh, SLMO2 / RFU, ABCC4 / Fold change vs veh, ABCC4 / RFU, LOC101060439 /// RAP1B / Fold change vs veh, LOC101060439 /// RAP1B / RFU, RFX7 / Fold change vs veh, RFX7 / RFU, GTPBP10 / Fold change vs veh, GTPBP10 / RFU, CNEP1R1 / Fold change vs veh, CNEP1R1 / RFU, BIVM-ERCC5 /// ERCC5 / Fold change vs veh, BIVM-ERCC5 /// ERCC5 / RFU, ILF3 / Fold change vs veh, ILF3 / RFU 11762660_at / Fold change /veh 11762660_at / RFU VCAN (11757783_s_at) / Fold change /veh VCAN (11757783_s_at) / RFU DDX43 (11728927_at) / Fold change /veh DDX43 (11728927_at) / RFU KRT8 (11758188_x_at) / Fold change /veh KRT8 (11758188_x_at) / RFU NKD1 (11759106_at) / Fold change /veh NKD1 (11759106_at) / RFU SRD5A1 (11742802_a_at) / Fold change /veh SRD5A1 (11742802_a_at) / RFU TPSAB1 /// TPSB2 (11721975_s_at) / Fold change /veh TPSAB1 /// TPSB2 (11721975_s_at) / RFU GSTM3 (11746129_a_at) / Fold change /veh GSTM3 (11746129_a_at) / RFU IL23R (11737362_x_at) / Fold change /veh IL23R (11737362_x_at) / RFU TMEM51 (11727254_a_at) / Fold change /veh TMEM51 (11727254_a_at) / RFU PIWIL2 (11732686_x_at) / Fold change /veh PIWIL2 (11732686_x_at) / RFU ORM1 (11744905_x_at) / Fold change /veh ORM1 (11744905_x_at) / RFU CCDC152 (11743942_at) / Fold change /veh CCDC152 (11743942_at) / RFU ECM1 (11717891_a_at) / Fold change /veh ECM1 (11717891_a_at) / RFU IL23R (11748794_a_at) / Fold change /veh IL23R (11748794_a_at) / RFU TNFAIP8L3 (11732012_x_at) / Fold change /veh TNFAIP8L3 (11732012_x_at) / RFU MBOAT4 (11741988_at) / Fold change /veh MBOAT4 (11741988_at) / RFU 11764193_at / Fold change /veh 11764193_at / RFU TMEM53 (11763286_at) / Fold change /veh TMEM53 (11763286_at) / RFU MAGEB2 (11727129_at) / Fold change /veh MAGEB2 (11727129_at) / RFU TMEM200A (11744735_a_at) / Fold change /veh TMEM200A (11744735_a_at) / RFU CCDC152 (11751479_a_at) / Fold change /veh CCDC152 (11751479_a_at) / RFU FAM211A (11726209_a_at) / Fold change /veh FAM211A (11726209_a_at) / RFU RGS16 (11746705_a_at) / Fold change /veh RGS16 (11746705_a_at) / RFU VCAN (11755009_s_at) / Fold change /veh VCAN (11755009_s_at) / RFU RHOB (11743442_s_at) / Fold change /veh RHOB (11743442_s_at) / RFU RGS16 (11720943_a_at) / Fold change /veh RGS16 (11720943_a_at) / RFU RGS16 (11720944_at) / Fold change /veh RGS16 (11720944_at) / RFU, VPS4B / Fold change vs veh, VPS4B / RFU, CREB1 / Fold change vs veh, CREB1 / RFU, DNAJC13 / Fold change vs veh, DNAJC13 / RFU, GNAQ / Fold change vs veh, GNAQ / RFU, CDK5R1 / Fold change vs veh, CDK5R1 / RFU, ZRANB3 / Fold change vs veh, ZRANB3 / RFU, CUL4A / Fold change vs veh, CUL4A / RFU, CCNY / Fold change vs veh, CCNY / RFU, UFL1 / Fold change vs veh, UFL1 / RFU, COG3 / Fold change vs veh, COG3 / RFU, DIAPH2 / Fold change vs veh, DIAPH2 / RFU, SKA2 / Fold change vs veh, SKA2 / RFU, AFF3 / Fold change vs veh, AFF3 / RFU, LMF1 / Fold change vs veh, LMF1 / RFU, IPO11 / Fold change vs veh, IPO11 / RFU, DFFB / Fold change vs veh, DFFB / RFU, FOXP1 / Fold change vs veh, FOXP1 / RFU, CARD8 / Fold change vs veh, CARD8 / RFU, STRN3 / Fold change vs veh, STRN3 / RFU, ADK / Fold change vs veh, ADK / RFU, RASSF2 / Fold change vs veh, RASSF2 / RFU, WIPF1 / Fold change vs veh, WIPF1 / RFU, LARP1B / Fold change vs veh, LARP1B / RFU, RASA1 / Fold change vs veh, RASA1 / RFU, RB1 / Fold change vs veh, RB1 / RFU, PPFIA1 / Fold change vs veh, PPFIA1 / RFU, MAT2A / Fold change vs veh, MAT2A / RFU, CCT5 / Fold change vs veh, CCT5 / RFU, WDR92 / Fold change vs veh, WDR92 / RFU, CUX1 / Fold change vs veh, CUX1 / RFU, TTC7A / Fold change vs veh, TTC7A / RFU, TMEM135 / Fold change vs veh, TMEM135 / RFU, DEPTOR / Fold change vs veh, DEPTOR / RFU, CPM / Fold change vs veh, CPM / RFU, DNAJB6 / Fold change vs veh, DNAJB6 / RFU, CACNA2D3 / Fold change vs veh, CACNA2D3 / RFU, DTX4 / Fold change vs veh, DTX4 / RFU, TFCP2 / Fold change vs veh, TFCP2 / RFU, GMCL1 /// GMCL1P1 / Fold change vs veh, GMCL1 /// GMCL1P1 / RFU, AEBP2 / Fold change vs veh, AEBP2 / RFU, SNHG1 /// SNORD22 /// SNORD25 /// SNORD26 /// SNORD27 /// SNORD28 /// SNORD29 /// SNORD31 / Fold change vs veh, SNHG1 /// SNORD22 /// SNORD25 /// SNORD26 /// SNORD27 /// SNORD28 /// SNORD29 /// SNORD31 / Fold change (Aza/veh), C12orf56 (ProbeSet 11735607_a_at) / Fold change (ACY-1035/veh), C12orf56 (ProbeSet 11735607_a_at) / Fold change (Aza/veh), FGFR1OP (ProbeSet 11751329_s_at) / Fold change (ACY-1035/veh), FGFR1OP (ProbeSet 11751329_s_at) / Fold change (Aza/veh), VPS36 (ProbeSet 11739960_a_at) / Fold change (ACY-1035/veh), VPS36 (ProbeSet 11739960_a_at) / RFU SYPL1 (11715823_x_at) / Fold change /veh SYPL1 (11715823_x_at) / RFU IGFBP7 (11715501_s_at) / Fold change /veh IGFBP7 (11715501_s_at) / RFU REEP3 (11722064_at) / Fold change /veh REEP3 (11722064_at) / RFU IGLL1 (11728026_x_at) / Fold change /veh IGLL1 (11728026_x_at): dose or concentration left out as unconfirmed
Conditions: ProbeSet 11753055_s_at; LIST B

Structure (SMILES): Nc1ccc(-c2cccs2)cc1NC(=O)c1ccc2c(c1)cc(C1CC1)n2CCN1CCOCC1 [ACY-1035]
- RFU, LOC101060439 /// RAP1B: 639.03 RFU
